Laboratory results: ChEMBL document CHEMBL5696439 (Cancer Res, 2010)
Calls of active or inactive are those of the source. No cut-off for these calls is given here.

Tests used:
[1] = system: PC3MM2; assay: Induction of apoptosis in human PC3MM2 cells assessed as reduction in S phase at 1 micromol/L incubated for 24 hrs by FACS analysis; assay type: functional, cell-based; conditions: dose 1.0 µmol/L
[2] = biological target: Dual specificity protein kinase CLK2 (Homo sapiens) (UniProt P49760); assay: Inhibition of recombinant human GST-tagged CLK2 (137-498 residues) expressed in insect cells at 2 uM using Ser/Thr 06 as substrate measured after 1 hr by Z'-LYTE assay relative to control; conditions: Insect cell
Dual specificity protein kinase CLK2 (Homo sapiens), sequence (P49760 whole entry, looked up, the tested form may be a part): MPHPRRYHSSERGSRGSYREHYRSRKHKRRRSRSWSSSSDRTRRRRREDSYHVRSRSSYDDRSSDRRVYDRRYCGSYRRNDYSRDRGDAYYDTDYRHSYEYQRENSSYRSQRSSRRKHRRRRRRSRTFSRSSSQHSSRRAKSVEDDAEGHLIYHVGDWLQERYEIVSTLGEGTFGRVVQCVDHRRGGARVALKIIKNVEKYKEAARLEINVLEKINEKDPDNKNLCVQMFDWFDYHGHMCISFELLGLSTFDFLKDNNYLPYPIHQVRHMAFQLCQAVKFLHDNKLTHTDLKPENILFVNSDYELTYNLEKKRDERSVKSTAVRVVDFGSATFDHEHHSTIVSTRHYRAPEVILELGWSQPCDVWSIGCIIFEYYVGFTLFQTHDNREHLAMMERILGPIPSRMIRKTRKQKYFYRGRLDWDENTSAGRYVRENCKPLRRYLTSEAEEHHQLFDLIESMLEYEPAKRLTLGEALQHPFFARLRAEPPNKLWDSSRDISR

[3] = biological target: Serine/threonine-protein kinase 24 (Homo sapiens) (UniProt Q9Y6E0); assay: Inhibition of recombinant human full length GST-tagged STK24 expressed in insect cells at 2 uM using Ser/Thr 07 as substrate measured after 1 hr by Z'-LYTE assay relative to control; conditions: Insect cell
[4] = system: A498; assay: Antiproliferative activity against human A498 cells assessed as cell growth inhibition at 10 micromol/L incubated for 3 days by MTS assay relative to control; assay type: functional; conditions: A498, 72 h, dose 10 µmol/L, time 3 day
[5] = system: HT-29; assay: Antitumor activity against human HT-29 cells xenografted in female nude mouse model assessed as suppression in P-AKT at S473 level at 50 mg/kg, iv administered once a week and measured at least 8 hrs by immunoblot analysis; assay type: functional, organism-based
[6] = biological target: Serine/threonine-protein kinase PLK1 (Homo sapiens) (UniProt P53350); assay: Inhibition of recombinant human full length His-tagged PLK1 expressed in insect cells at 2 uM using Ser/Thr 16 as substrate measured after 1 hr by Z'-LYTE assay relative to control; conditions: Insect cell
[7] = biological target: Serine/threonine-protein kinase N1 (Homo sapiens) (UniProt Q16512); assay: Inhibition of recombinant human full length GST-tagged PKN1 expressed in insect cells at 2 uM using Ser/Thr 07 as substrate measured after 1 hr by Z'-LYTE assay relative to control; conditions: Insect cell
[8] = biological target: Serine/threonine-protein kinase D1 (Homo sapiens) (UniProt Q15139); assay: Inhibition of recombinant human full length GST-tagged PRKD1 expressed in insect cells at 2 uM using Ser/Thr 17 as substrate measured after 1 hr by Z'-LYTE assay relative to control; conditions: Insect cell
Serine/threonine-protein kinase D1 (Homo sapiens), sequence (Q15139 whole entry): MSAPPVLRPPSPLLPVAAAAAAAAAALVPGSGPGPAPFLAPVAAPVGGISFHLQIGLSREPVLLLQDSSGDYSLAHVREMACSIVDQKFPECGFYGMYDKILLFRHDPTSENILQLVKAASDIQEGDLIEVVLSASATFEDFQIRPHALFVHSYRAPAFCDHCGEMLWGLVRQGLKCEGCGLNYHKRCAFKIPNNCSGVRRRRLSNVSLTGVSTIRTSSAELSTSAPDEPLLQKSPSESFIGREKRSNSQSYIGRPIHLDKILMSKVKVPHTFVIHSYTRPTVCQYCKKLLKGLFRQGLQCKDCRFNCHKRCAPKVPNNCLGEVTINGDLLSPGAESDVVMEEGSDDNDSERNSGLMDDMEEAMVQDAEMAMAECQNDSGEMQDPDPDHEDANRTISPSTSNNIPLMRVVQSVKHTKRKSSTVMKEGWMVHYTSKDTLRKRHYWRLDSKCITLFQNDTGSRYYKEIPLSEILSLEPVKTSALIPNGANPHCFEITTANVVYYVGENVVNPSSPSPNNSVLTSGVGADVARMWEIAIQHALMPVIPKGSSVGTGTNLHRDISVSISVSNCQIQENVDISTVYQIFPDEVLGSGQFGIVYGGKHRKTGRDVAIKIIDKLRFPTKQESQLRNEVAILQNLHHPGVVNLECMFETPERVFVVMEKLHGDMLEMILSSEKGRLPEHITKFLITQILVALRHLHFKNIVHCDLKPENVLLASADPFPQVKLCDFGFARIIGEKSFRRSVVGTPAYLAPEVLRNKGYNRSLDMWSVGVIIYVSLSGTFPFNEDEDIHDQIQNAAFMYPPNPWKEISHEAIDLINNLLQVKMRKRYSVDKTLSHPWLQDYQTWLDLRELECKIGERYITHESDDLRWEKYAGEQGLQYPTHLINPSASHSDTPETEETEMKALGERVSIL

[9] = system: MDA-MB-361; assay: Antiproliferative activity against human MDA-MB-361 cells assessed as cell growth inhibition at 10 micromol/L incubated for 3 days by MTS assay relative to control; assay type: functional; conditions: MDA-MB-361, 72 h, dose 10 µmol/L, time 3 day
[10] = biological target: Serine/threonine-protein kinase mTOR (Homo sapiens, UniProt P42345); assay: Inhibition of human full-length Flag-tagged mTOR expressed in HEK293 cells using His6-S6K as substrate measured after 2 hrs in presence of ATP by DELFIA
[11] = biological target: Glycogen synthase kinase-3 beta (Homo sapiens) (UniProt P49841); assay: Inhibition of recombinant human full-length His-tagged GSK3B expressed in baculovirus expression system at 2 uM using Ser/Thr 09 as substrate measured after 1 hr by Z'-LYTE assay relative to control
Glycogen synthase kinase-3 beta (Homo sapiens), sequence (P49841 whole entry, looked up, the tested form may be a part): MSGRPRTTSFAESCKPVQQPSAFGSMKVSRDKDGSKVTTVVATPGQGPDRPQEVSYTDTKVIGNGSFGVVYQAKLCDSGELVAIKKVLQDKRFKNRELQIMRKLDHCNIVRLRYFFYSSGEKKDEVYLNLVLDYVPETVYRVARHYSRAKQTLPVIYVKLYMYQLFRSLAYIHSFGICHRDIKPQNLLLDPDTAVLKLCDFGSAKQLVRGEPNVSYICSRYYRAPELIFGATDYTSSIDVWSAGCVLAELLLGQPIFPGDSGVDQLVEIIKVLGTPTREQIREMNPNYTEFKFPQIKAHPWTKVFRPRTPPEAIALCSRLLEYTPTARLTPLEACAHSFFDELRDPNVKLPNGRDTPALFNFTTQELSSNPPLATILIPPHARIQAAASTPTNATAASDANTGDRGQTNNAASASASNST

[12] = biological target: Receptor-type tyrosine-protein kinase FLT3 (Homo sapiens) (UniProt P36888); assay: Inhibition of recombinant human His-tagged FLT3 (564-958 residues) expressed in insect cells at 2 uM using Tyr 02 as substrate measured after 1 hr by Z'-LYTE assay relative to control; conditions: Insect cell
[13] = biological target: MAP kinase-activated protein kinase 3 (Homo sapiens) (UniProt Q16644); assay: Inhibition of recombinant human full length His-tagged MAPKAPK3 expressed in baculovirus expression system at 2 uM using Ser/Thr 04 as substrate measured after 1 hr by Z'-LYTE assay relative to control
MAP kinase-activated protein kinase 3 (Homo sapiens), sequence (Q16644 whole entry, looked up): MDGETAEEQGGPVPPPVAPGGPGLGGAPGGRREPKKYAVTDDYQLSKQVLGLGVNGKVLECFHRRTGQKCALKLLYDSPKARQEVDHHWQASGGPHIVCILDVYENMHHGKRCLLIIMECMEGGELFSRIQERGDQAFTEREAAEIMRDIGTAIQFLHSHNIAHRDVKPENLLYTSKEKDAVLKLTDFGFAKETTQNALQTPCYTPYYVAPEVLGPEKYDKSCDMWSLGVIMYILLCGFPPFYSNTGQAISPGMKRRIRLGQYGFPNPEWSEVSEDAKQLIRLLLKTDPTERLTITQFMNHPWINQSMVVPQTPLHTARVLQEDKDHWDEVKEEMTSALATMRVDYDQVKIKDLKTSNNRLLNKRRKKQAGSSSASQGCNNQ

[14] = biological target: Aurora kinase A (Homo sapiens) (UniProt O14965); assay: Inhibition of recombinant human full-length His-tagged AURKA expressed in insect cells at 2 uM using Ser/Thr 01 as substrate measured after 1 hr by Z'-LYTE assay relative to control; conditions: Insect cell
Aurora kinase A (Homo sapiens), sequence (O14965 whole entry): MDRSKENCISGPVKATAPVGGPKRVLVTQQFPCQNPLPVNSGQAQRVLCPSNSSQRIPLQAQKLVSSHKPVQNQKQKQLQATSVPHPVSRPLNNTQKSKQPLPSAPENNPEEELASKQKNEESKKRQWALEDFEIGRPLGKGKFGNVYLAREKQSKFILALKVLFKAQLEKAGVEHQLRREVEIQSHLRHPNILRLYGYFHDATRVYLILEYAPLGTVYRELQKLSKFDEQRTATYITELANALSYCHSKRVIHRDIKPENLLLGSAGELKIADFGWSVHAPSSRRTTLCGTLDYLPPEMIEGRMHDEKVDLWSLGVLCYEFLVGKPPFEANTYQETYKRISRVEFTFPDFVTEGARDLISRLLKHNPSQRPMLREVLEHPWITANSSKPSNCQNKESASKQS

[15] = biological target: Dual specificity mitogen-activated protein kinase kinase 2 (Homo sapiens) (UniProt P36507); assay: Inhibition of recombinant human full length His-tagged MAP2K2 expressed in baculovirus expression system at 2 uM using Ser/Thr 03 as substrate measured after 1 hr by Z'-LYTE assay relative to control
Dual specificity mitogen-activated protein kinase kinase 2 (Homo sapiens), sequence (P36507 whole entry): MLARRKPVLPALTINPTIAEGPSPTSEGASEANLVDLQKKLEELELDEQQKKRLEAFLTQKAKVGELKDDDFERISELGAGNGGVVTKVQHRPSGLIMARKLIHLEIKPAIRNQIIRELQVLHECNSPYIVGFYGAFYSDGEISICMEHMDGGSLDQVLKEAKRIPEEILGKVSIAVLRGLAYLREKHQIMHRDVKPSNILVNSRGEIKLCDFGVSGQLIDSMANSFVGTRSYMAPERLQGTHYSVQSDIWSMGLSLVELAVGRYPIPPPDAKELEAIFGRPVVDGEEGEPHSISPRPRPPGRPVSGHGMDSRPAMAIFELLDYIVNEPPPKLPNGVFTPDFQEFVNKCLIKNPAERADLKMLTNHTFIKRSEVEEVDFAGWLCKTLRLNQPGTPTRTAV

[16] = system: PC3MM2; assay: Induction of apoptosis in human PC3MM2 cells assessed as increase in G1 phase at 1 micromol/L incubated for 24 hrs by FACS analysis; assay type: functional, cell-based; conditions: dose 1.0 µmol/L
[17] = biological target: Activin receptor type-1B (Homo sapiens) (UniProt P36896); assay: Inhibition of recombinant human GST-tagged ACVR1B (150 to 505 residues) expressed in insect cells at 2 uM using Ser/Thr 16 as substrate measured after 1 hr by Z'-LYTE assay relative to control; conditions: Insect cell
[18] = biological target: Serine/threonine-protein kinase BRSK1 (Homo sapiens) (UniProt Q8TDC3); assay: Inhibition of recombinant human full-length GST tagged BRSK1 expressed in baculovirus expression system at 2 uM using Ser/Thr 21 as substrate measured after 1 hr by Z'-LYTE assay relative to control
Serine/threonine-protein kinase BRSK1 (Homo sapiens), sequence (Q8TDC3 whole entry): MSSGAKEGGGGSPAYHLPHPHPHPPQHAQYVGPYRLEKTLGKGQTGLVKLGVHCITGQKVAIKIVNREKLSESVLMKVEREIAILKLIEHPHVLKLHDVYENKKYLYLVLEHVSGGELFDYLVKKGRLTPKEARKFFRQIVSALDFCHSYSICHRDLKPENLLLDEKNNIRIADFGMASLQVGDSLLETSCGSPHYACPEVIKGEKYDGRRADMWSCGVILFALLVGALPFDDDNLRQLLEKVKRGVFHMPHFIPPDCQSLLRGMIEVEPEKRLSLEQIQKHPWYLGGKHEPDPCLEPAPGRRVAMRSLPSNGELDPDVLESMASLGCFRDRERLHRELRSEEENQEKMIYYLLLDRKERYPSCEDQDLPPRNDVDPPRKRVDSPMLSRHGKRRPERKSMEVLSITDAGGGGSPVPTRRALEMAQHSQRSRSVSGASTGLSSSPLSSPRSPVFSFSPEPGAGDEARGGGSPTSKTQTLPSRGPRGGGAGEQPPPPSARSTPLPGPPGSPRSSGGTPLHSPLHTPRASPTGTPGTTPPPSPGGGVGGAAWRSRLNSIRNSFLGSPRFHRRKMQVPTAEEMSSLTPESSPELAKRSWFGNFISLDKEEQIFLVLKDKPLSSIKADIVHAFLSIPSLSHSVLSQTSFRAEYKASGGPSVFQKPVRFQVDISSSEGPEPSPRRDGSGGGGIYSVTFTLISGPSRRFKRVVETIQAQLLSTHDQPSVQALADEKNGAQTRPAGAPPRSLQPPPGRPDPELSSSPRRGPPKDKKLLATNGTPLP

[19] = system: U-87 MG; assay: Antitumor activity against human U-87MG cells assessed as reduction in lactate production at 1 micromol/L incubated for 24 hrs relative to control; assay type: functional, U-87MG ATCC; design: scale not given: the % may be the effect or the level left; conditions: dose 1 µmol/L, at 1 µM
[20] = biological target: Serine/threonine-protein kinase Nek6 (Homo sapiens) (UniProt Q9HC98); assay: Inhibition of recombinant human full length GST-tagged NEK6 expressed in insect cells at 2 uM using Ser/Thr 22 as substrate measured after 1 hr by Z'-LYTE assay relative to control; conditions: Insect cell
Serine/threonine-protein kinase Nek6 (Homo sapiens), sequence (Q9HC98 whole entry): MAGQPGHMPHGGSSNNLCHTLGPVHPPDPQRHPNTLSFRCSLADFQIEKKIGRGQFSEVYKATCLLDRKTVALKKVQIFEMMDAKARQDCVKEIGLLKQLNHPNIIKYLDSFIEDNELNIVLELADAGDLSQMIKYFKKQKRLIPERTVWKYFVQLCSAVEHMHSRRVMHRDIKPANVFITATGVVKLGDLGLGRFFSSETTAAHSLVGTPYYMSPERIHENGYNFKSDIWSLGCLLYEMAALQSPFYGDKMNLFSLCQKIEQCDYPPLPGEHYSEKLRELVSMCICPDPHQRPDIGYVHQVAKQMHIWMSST

[21] = system: HCT-116; assay: Antitumor activity against human HCT-116 cells xenografted in female nude mouse model assessed as suppression in P-S6K at T389 level at 50 mg/kg, iv administered once a week and measured at least 8 hrs by immunoblot analysis; assay type: functional, organism-based
[22] = system: Rat1; assay: Inhibition of mTORC2 in rat Rat1 cells assessed as reduction in AKT phosphorylation at T308 level at 0.01 to 2 uM incubated for 1 hrs in the presence of IGF-1 stimulation by immunoblot assay; assay type: cell-based; conditions: dose 0.01-2 µM
[23] = biological target: PAS domain-containing serine/threonine-protein kinase (Homo sapiens) (UniProt Q96RG2); assay: Inhibition of recombinant human GST-tagged PASK (879-1323 residues) expressed in insect cells at 2 uM using Ser/Thr 07 as substrate measured after 1 hr by Z'-LYTE assay relative to control; conditions: Insect cell
[24] = biological target: Serine/threonine-protein kinase Chk1 (Homo sapiens) (UniProt O14757); assay: Inhibition of recombinant human full-length His-tagged CHEK1 expressed in baculovirus expression system at 2 uM using Ser/Thr 19 as substrate measured after 1 hr by Z'-LYTE assay relative to control
[25] = biological target: Tyrosine-protein kinase receptor UFO (Homo sapiens) (UniProt P30530); assay: Inhibition of recombinant human His-tagged AXL (473 to end residues) expressed in insect cells at 2 uM using Tyr 06 as substrate measured after 1 hr by Z'-LYTE assay relative to control; conditions: Insect cell
Tyrosine-protein kinase receptor UFO (Homo sapiens), sequence (P30530 whole entry): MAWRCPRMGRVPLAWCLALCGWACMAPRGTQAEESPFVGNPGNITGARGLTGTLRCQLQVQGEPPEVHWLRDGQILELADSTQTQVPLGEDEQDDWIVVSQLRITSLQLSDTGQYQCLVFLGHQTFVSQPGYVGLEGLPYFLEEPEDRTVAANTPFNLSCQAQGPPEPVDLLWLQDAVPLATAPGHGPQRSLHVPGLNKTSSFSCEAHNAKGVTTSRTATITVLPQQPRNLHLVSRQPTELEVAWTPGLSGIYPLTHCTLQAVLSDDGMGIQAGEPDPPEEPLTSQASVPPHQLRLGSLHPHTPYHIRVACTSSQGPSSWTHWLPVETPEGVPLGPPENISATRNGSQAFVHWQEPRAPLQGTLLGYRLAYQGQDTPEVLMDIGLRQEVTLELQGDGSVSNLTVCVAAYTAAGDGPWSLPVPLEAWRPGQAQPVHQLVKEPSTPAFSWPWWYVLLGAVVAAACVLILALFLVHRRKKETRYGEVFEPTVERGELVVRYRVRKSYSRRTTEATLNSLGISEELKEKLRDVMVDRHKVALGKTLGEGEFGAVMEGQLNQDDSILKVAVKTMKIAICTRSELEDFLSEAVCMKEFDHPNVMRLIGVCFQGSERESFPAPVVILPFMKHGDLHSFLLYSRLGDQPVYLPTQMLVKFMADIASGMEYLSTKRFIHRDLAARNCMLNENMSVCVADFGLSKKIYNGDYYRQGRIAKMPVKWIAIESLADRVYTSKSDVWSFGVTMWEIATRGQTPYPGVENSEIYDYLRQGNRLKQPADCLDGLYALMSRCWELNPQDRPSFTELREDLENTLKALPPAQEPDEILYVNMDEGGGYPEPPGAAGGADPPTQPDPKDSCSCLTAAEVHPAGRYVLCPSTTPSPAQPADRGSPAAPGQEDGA

Compound: CNC(=O)Nc1ccc(-c2nc(N3CC4CCC(C3)O4)c3cnn(C4CCC5(CC4)OCCO5)c3n2)cc1
- Activity [1]: Active
- inhibition [2]: 0%
- inhibition [3]: -1%
- inhibition at 10 µM [4]: 100%
- Activity [5]: Active
- inhibition [6]: -4%
- inhibition [7]: 14%
- inhibition [8]: 0%
- inhibition at 10 µM [9]: 100%
- IC50 [10]: 0.19 nM
- inhibition [11]: 1%
- inhibition [12]: 17%
- inhibition [13]: 1%
- inhibition [14]: 0%
- inhibition [15]: 2%
- Activity [16]: Active
- inhibition [17]: 3%
- inhibition [18]: 1%
- Activity [19]: 48%
- inhibition [20]: 12%
- Activity [21]: Active
- inhibition [22]: inactive
- inhibition [23]: 3%
- inhibition [24]: 9%
- inhibition [25]: 2%
